In US20240189276A1, “COMPOSITIONS COMPRISING LACTATE DEHYDROGENASE-A INHIBITORS AND METHODS OF PRODUCTION AND USE THEREOF” (Southwestern Oklahoma State University, priority 2022, published 2024):

Legend:
PANC-1 cells = test: Cytotoxicity (viability/proliferation/necrosis) assay, PANC-1; type: cell-based; conditions: Homo sapiens; PANC-1, 48 hr, normoxic; read-out: Cytotoxicity IC50 ± SD, PANC-1
Experimental: (§1) Cytotoxicity study: Anticancer potency was investigated using a fluorescence-based high throughput confocal microscopy cell viability/proliferation/cell death assay. […] Selected compounds were also tested in the FC1199 pancreatic cancer line from the KPC-1 genetically engineered mouse model. Compounds were also tested in hTERT immortalized normal pancreatic (HPNE) cell lines to rule out nonspecific cytotoxicity of compounds.
(§2) Cell lines. The human PANC-1, MiaPaCa-2, and HPNE cell lines were obtained from American Type Culture Collection (ATCC, Manassas, VA, USA). Mouse pancreatic cancer FC1199 cells were obtained from the KPC-1 genetically engineered mouse model that has mutated K-Ras, metastasizes to the liver, and forms desmoplasia.
(§3) Cytotoxicity assay. Cytotoxicity was assessed using the viability/proliferation/necrosis assay. […] Confocal images were acquired using the Operetta High Content Imaging System (PerkinElmer). […] SYTOX Green will be detected using an excitation wavelength of 500-520 nm and an emission wavelength of 520-530 nm. Brightfield images will also be acquired for each field. […] Cell counts were summed over the five fields for each well, and the percentage of viable cells was calculated relative to the untreated control.

[1] = test system: FC1199 pancreatic cancer cells; test: Cytotoxicity (viability/proliferation/necrosis) assay, FC1199; type: cell-based; conditions: Mus musculus, Pancreatic cancer cell; FC-1199, 48 hr; read-out: Cytotoxicity IC50 ± SD, FC-1199
Experimental: as §1, §2, §3

[2] = Cytotoxicity assay in hTERT immortalized normal pancreatic cells; type: cell-based; conditions: human, HPNE cells (hTERT immortalized normal pancreatic cells), read-out: Cytotoxicity IC50 ± SD, HPNE Normal
Experimental: as §1, §2, §3

[3] = test system: HeLa human cervical carcinoma cells; conditions: literature; normoxic conditions stated for NHI-2; cited from earlier work
PANC-1 = conditions: literature, normoxic conditions; read-out: viability IC50 in PANC-1; cited from earlier work
PDAC cells = conditions: literature; cited from earlier work
[4] = test system: human pancreatic and lymphoma cancer xenografts; conditions: literature; cited from earlier work
MIA PaCa-2 = conditions: literature; read-out: cell viability IC50 in MIA PaCa-2; cited from earlier work
cancer cell growth = conditions: literature, hypoxic conditions; read-out: IC50, inhibition of cancer cell growth; cited from earlier work
[5] = literature; cited from earlier work
Snu398 cells = conditions: literature; read-out: cell viability EC50 in Snu398 cells; cited from earlier work
hLDH5 (LDHA) = hLDH5 (LDHA) (Homo sapiens, UniProt P00338); test: Biochemical LDHA (hLDH5) inhibition assay, NADH fluorescence; conditions: read-out: LDHA inhibition IC50 ± SD
Experimental: Biochemical LDHA inhibition assay: The hLDH5 (LDHA) enzymatic activity was measured by fluorescence (excitation@ 340 nm, emission@ 460 nm) to monitor the rate of conversion of NADH to NAD+at 37° C.
The hLDH5 (LDHA) inhibition assay was performed by measuring the fluorescence (excitation@ 340 nm, emission@ 460 nm) and monitoring the rate of conversion of NADH to NAD+at 37° C. as reported. […] The stock solution of compounds was prepared in DMSO. […] The experiment involved adding a solution of compounds in DMSO to the enzyme and NADH in a phosphate buffer. The assay plate was incubated at 25° C. for 10 minutes, and a baseline read was taken, after which pyruvate was added. The fluorescence was read for 5 minutes every 30 seconds in a microplate reader. The slope of a suitable linear timeframe was calculated with the curve bottom assigned to the initial 5-second recording before adding pyruvate (background rate) and the curve top to the negative (DMSO only) control wells rate. IC50 values were determined from dose-response curves using four-parameter logistic non-linear regression analysis in Prism Software v9.0. The assays were performed in triplicates and the data is presented as mean±SD (n=3).

LDHA = LDHA (Homo sapiens, UniProt P00338); conditions: literature; cited from earlier work
cells = conditions: literature; cited from earlier work

| Compound | IC50 (PANC-1 cells) | IC50 [1] | IC50 at 48 hr [2] | further results |
| --- | --- | --- | --- | --- |
| O=C(CC(C(=O)O)c1ccc(C(F)(F)F)cc1)Nc1ccc(C(=O)N2CCc3ccccc32)cc1 (centres unmarked) [Compound 19] | 43.1 ± 4.87 µM | 56.5 µM | > 50 µM | – |
| COC(=O)c1cc2c(C(F)(F)F)cc(-c3ccccc3)cc2n1O [NHI-2] | – | – | – | IC50 [3]: 33.4 µM; IC50 (PANC-1): 22.2 µM; apoptosis and gemcitabine synergy (PDAC cells): induced apoptosis, and synergistically enhanced gemcitabine activity in PDAC cells |
| Cn1ccnc1C(=O)c1ccc(NC(=O)CC(C(=O)O)c2ccc(C(F)(F)F)cc2)cc1 (centres unmarked) [Compound 5] | 43.3 ± 3.98 µM | 20.8 ± 2.97 µM | > 50 µM | – |
| CCCc1c(O)c(O)c(C(=O)O)c2cc(Cc3ccccc3)c(C)cc12 [FX-11] | – | – | – | IC50 [3]: 23.3 µM; progression of cancer xenografts [4]: inhibit the progression of human pancreatic and lymphoma cancer xenografts |
| GNE-140 | – | – | – | IC50 (MIA PaCa-2): 2.05 µM; IC50 (cancer cell growth): 2 µM; pharmacokinetics / clearance in vivo [5]: high clearance |
| COC(=O)C(CC(=O)Nc1ccc(C(=O)c2nccn2C)cc1)c1ccc(C(F)(F)F)cc1 (centres unmarked) [Compound 4] | 23.9 ± 1.8 µM | 12.1 ± 1.2 µM | 49.5 ± 7.3 µM | – |
| COc1ncc(-c2ccc3c(Nc4cc(Oc5cc(F)cc(F)c5)cc(C(=O)O)c4)c(S(=O)(=O)NC4CC4)cnc3c2)c(OC)n1 [GSK2837808A] | – | – | – | EC50 (Snu398 cells): 2.9 µM; IC50 (cancer cell growth): 2.97 µM; pharmacokinetics / clearance in vivo [5]: poor pharmacokinetics in vivo |
| COC(=O)C(CC(=O)Nc1ccc(F)cn1)c1ccc(C(F)(F)F)cc1 (centres unmarked) [Compound 23] | 22.3 ± 2 µM | 13.3 ± 0.9 µM | > 50 µM | IC50 (hLDH5 (LDHA)): 5.58 ± 1.05 µM |
| Cc1nc2ccc(NC(=O)CCNC(=O)CCCc3ccc(CC(C(=O)O)C(=O)O)cc3)cc2s1 [AZ33] | – | – | – | IC50 (LDHA): 0.5 µM; cellular activity (cells): inactive in cells |
| COC(=O)C(CC(=O)Nc1ccc(C(=O)N2CCc3ccccc32)cc1)c1ccc(C(F)(F)F)cc1 (centres unmarked) [Compound 17] | 24.2 ± 1.08 µM | 73.4 ± 6.8 µM | 50.7 ± 3.6 µM | – |
